In paper PMC3929320 (Journal of medicinal chemistry, 2010) one finds IC50 data, which are given here for two molecules.

For test [1], the target named is T1, human kynurenine aminotransferase II (hKAT II) (Homo sapiens, UniProt Q8N5Z0). The experiment in a line: recombinant enzyme assay, L-KYN to KYNA conversion by HPLC. Type of test: biochemical.
Target sequence in this assay (Q8N5Z0 whole entry): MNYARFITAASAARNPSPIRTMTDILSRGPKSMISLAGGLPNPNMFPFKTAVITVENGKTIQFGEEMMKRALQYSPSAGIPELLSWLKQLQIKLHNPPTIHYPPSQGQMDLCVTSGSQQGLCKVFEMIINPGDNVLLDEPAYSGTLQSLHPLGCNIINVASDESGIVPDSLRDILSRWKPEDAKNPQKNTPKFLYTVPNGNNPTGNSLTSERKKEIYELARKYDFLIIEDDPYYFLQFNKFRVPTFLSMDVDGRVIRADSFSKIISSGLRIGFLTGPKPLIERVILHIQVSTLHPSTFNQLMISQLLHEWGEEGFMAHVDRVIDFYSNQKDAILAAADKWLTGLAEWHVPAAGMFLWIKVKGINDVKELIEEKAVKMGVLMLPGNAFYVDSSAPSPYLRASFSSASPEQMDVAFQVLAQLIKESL
Test [2] deals with T1, human kynurenine aminotransferase II (hKAT II). The experiment in a line: X-ray crystal structure at […] Å. Type of test: biochemical.
Target sequence in this assay (Q8N5Z0 2-425): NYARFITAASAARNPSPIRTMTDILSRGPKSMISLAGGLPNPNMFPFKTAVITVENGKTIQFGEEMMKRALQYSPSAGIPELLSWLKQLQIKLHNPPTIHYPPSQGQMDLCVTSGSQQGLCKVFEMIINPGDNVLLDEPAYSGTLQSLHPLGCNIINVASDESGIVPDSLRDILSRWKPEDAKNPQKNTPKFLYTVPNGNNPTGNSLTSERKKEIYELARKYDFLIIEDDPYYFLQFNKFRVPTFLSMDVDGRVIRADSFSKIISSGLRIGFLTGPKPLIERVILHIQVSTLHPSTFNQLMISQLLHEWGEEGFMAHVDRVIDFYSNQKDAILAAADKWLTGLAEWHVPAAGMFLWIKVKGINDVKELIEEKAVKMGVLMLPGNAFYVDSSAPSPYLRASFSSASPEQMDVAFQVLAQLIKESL

Consider `C[C@@H]1COc2c(N3CCN(N)CC3)c(F)cc3c(=O)c(C(=O)O)cn1c23` [1*, 1* (stereoisomer of BFF-122)], for which the IC50 in test [1] is 0.91 and 1.5 (two enantiomers) μM.

Turning to `C[C@H]1COc2c(N3CCN(N)CC3)c(F)cc3c(=O)c(C(=O)O)cn1c23` [compound 1, (S)-(−)-9-(4-aminopiperazin-1-yl)-8-fluoro-3-methyl-6-oxo-2,3-dihydro-6H-1-oxa-3a-azaphenalene-5-carboxylic acid], the IC50 in test [2] was 0.91 and 1.5 (two enantiomers) μM.
